Experiments:
[1] = test system: Kuramochi cells labeled with mApple-H2B; assay: IncuCyte cell proliferation assay; type: cell-based; conditions: Kuramochi RB-WT, cell count 0 to 72 hours; method calls it GI50
Description: IncuCyte® assay was used to measure the effect of disclosed compounds on cell proliferation. Fluorescent microscopy images of cells were taken immediately after compound treatment and 72 hours later. Image analysis software was used to obtain cell counts as a function of compound concentration. Kuramochi cells labeled with mApple-H2B were seeded on 384-well assay-ready plates. Plates were placed in an IncuCyte® (Sartorius) and scanned at 0 and 72 hours. IncuCyte® software was used to count the number of fluorescent nuclei in each well. The fold change in cell count from 0 to 72 hours in wells treated with increasing compounds concentrations (10 pts, 1/2 log dilution, 20 μM top concentration) was normalized to DMSO control wells. The normalized cell counts were fit with dose response curves and a GI50 was calculated.

CDK2/Cyclin E1 = CDK2/Cyclin E1 (Homo sapiens (Human), UniProt P24941); assay: Caliper LabChip EZ Reader mobility shift assay; type: biochemical; conditions: 2.5 nM CDK2/Cyclin E1 (14-475), 100 μM ATP, 1.5 μM fluorescent peptide; read-out: Caliper Assay (CDK2/CCNE1): IC50
Description: Inhibition of CDK2/Cyclin E1 activity in the presence of compounds of the present disclosure was evaluated using a Caliper LabChip® EZ Reader mobility shift assay. In the assay, activated CDK2/Cyclin E1 catalyzes the phosphorylation of a fluorescently tagged peptide 5-FAM-QSPKKG-CONH2 (PerkinElmer, FL Peptide 18) which induces a difference in capillary electrophoresis mobility. The peptide substrate and product were measured, and the conversion ratio was used to determine the inhibition (as % activity and IC50 values) of CDK2/Cyclin E1. Reactions contained 50 mM HEPES pH 7.5, 10 mM MgCl2, 1 mM EDTA, 2 mM DTT, 0.01% Brij35, 0.5 mg/mL BSA, 0.1% DMSO, 2.5 nM CDK2/Cyclin E1 (14-475), 100 μM ATP, and 1.5 μM fluorescent peptide substrate.
Dose titrations of inhibitors in 100% DMSO were combined with 3.25 nM CDK2/Cyclin E1 (14-475) and 130 μM of ATP in reaction buffer. The mixtures were incubated for 30 minutes before the addition of fluorescent peptide substrate to initiate the kinase reaction. The final conditions were 2.5 nM CDK2/Cyclin E1 (14-475), 100 μM ATP, and 1.5 μM fluorescent peptide. The reactions were stopped after 100 minutes with the addition of EDTA (6 mM final EDTA concentration). The stopped reactions were analyzed on a Caliper LabChip® EZ Reader II. The conversion ratios were normalized to yield % activity, plotted against compound concentration, and fit to a four-parameter equation to determine the IC50 for each compound.

| SMILES | IC50 (CDK2/Cyclin E1) | IC50 [1] |
| --- | --- | --- |
| CC(OCC12CCC(CC1)OC2)[C@H](NC(=O)[C@@H]1CN(c2ncnc3ncsc23)CC12CN(C(=O)[C@H]1CC1(C)C)C2)C(=O)N1CC2(CCOCC2)C1 (stereo partly drawn) [Compound I-25, (S)-N-((2S,3R)-3-((2-oxabicyclo[2.2.2]octan-4-yl)methoxy)-1-oxo-1-(7-oxa-2-azaspiro[3.5]nonan-2-yl)butan-2-yl)-2-((S)-2,2-dimethylcyclopropane-1-carbonyl)-6-(thiazolo[4,5-d]pyrimidin-7-yl)-2,6-diazaspiro[3.4]octane-8-carboxamide] | 0.1 to 1 µM | > 20 µM |
| C[C@@H](OCC1(CO)CC=CCC1)[C@H](NC(=O)[C@@H]1CN(c2ncnc3ncsc23)CC12CN(C(=O)[C@H]1CC1(C)C)C2)C(=O)N1CC2(CCOCC2)C1 (stereo partly drawn) [Compound I-37, (8S)-2-((S)-2,2-dimethylcyclopropane-1-carbonyl)-N-((2S,3R)-3-((1-(hydroxymethyl)cyclohex-3-en-1-yl)methoxy)-1-oxo-1-(7-oxa-2-azaspiro[3.5]nonan-2-yl)butan-2-yl)-6-(thiazolo[4,5-d]pyrimidin-7-yl)-2,6-diazaspiro[3.4]octane-8-carboxamide] | 0.1 to 1 µM | > 20 µM |
| C[C@@H](OCC1(CO)CC=CCC1)[C@H](NC(=O)[C@@H]1CN(c2ncnc3ncsc23)CC12CN(C(=O)[C@H]1CC1(C)C)C2)C(=O)N1CCC(C(F)(F)F)CC1 (stereo partly drawn) [Compound I-36, (8S)-2-((S)-2,2-dimethylcyclopropane-1-carbonyl)-N-((2S,3R)-3-((1-(hydroxymethyl)cyclohex-3-en-1-yl)methoxy)-1-oxo-1-(4-(trifluoromethyl)piperidin-1-yl)butan-2-yl)-6-(thiazolo[4,5-d]pyrimidin-7-yl)-2,6-diazaspiro[3.4]octane-8-carboxamide] | 0.01 to 0.1 µM | > 20 µM |
| COC[C@H]1CCCN(C(=O)[C@@H](NC(=O)[C@@H]2CN(c3cc(C(F)(F)F)cc4ncsc34)CC23CN(C(=O)[C@H]2CC2(C)C)C3)[C@@H](C)OCC23CCC(CC2)OC3)C1 [Compound I-21, (S)-N-((2S,3R)-3-(2-oxabicyclo[2.2.2]octan-4-ylmethoxy)-1-((S)-3-(methoxymethyl)piperidin-1-yl)-1-oxobutan-2-yl)-2-((S)-2,2-dimethylcyclopropanecarbonyl)-6-(5-(trifluoromethyl)benzo[d]thiazol-7-yl)-2,6-diazaspiro[3.4]octane-8-carboxamide] | > 10 µM | 5 to 20 µM |
| C[C@@H](OCC12CCC(CC1)OC2)C(NC(=O)[C@@H]1CN(c2cccc3ncsc23)CC12CN(C(=O)[C@H]1CC1(C)C)C2)C(C)(C)O (stereo partly drawn) [Compound I-16, (S)-N-((3S,4R)-4-((2-oxabicyclo[2.2.2]octan-4-yl)methoxy)-2-hydroxy-2-methylpentan-3-yl)-6-(benzo[d]thiazol-7-yl)-2-((S)-2,2-dimethylcyclopropane-1-carbonyl)-2,6-diazaspiro[3.4]octane-8-carboxamide] | > 10 µM |  |
| COC[C@H]1CCCN(C(=O)[C@@H](NC(=O)[C@@H]2CN(c3n[nH]c4ncccc34)CC23CN(C(=O)[C@H]2CC2(C)C)C3)[C@@H](C)OCC23CCC(CC2)OC3)C1 [Compound I-24, (S)-N-((2S,3R)-3-(2-oxabicyclo[2.2.2]octan-4-ylmethoxy)-1-((S)-3-(methoxymethyl)piperidin-1-yl)-1-oxobutan-2-yl)-2-((S)-2,2-dimethylcyclopropanecarbonyl)-6-(1H-pyrazolo[3,4-b]pyridin-3-yl)-2,6-diazaspiro[3.4]octane-8-carboxamide] | > 10 µM |  |

More lines, main results first:

| IC50 (CDK2/Cyclin E1) | SMILES | IC50 [1] |
| --- | --- | --- |
| 0.01 to 0.1 µM | C[C@@H](OCC12CCC(CC1)OC2)[C@H](NC(=O)[C@@H]1CN(c2ncnc3ncsc23)CC12CN(C(=O)[C@H]1CC1(C)C)C2)C(=O)N1CCC(OC(F)(F)F)CC1 [Compound I-29, (S)-N-((2S,3R)-3-((2-oxabicyclo[2.2.2]octan-4-yl)methoxy)-1-oxo-1-(4-(trifluoromethoxy)piperidin-1-yl)butan-2-yl)-2-((S)-2,2-dimethylcyclopropane-1-carbonyl)-6-(thiazolo[4,5-d]pyrimidin-7-yl)-2,6-diazaspiro[3.4]octane-8-carboxamide] | 5 to 20 µM |
| > 10 µM | C[C@@H](OCC1CCC(F)(F)CC1)[C@H](NC(=O)[C@@H]1CN(C(=O)c2cncs2)CC12CN(c1cc[nH]n1)C2)C(C)(C)O [Compound I-6, (S)-N-((3S,4R)-4-((4,4-difluorocyclohexyl)methoxy)-2-hydroxy-2-methylpentan-3-yl)-2-(1H-pyrazol-3-yl)-6-(thiazole-5-carbonyl)-2,6-diazaspiro[3.4]octane-8-carboxamide] | > 20 µM |
| 1 to 10 µM | C[C@@H](OCC12CCC(CC1)OC2)[C@H](NC(=O)[C@@H]1CN(c2nccc3ncsc23)CC12CN(C(=O)[C@H]1CC1(C)C)C2)C(=O)N(C)C [Compound I-23, (S)-N-((2S,3R)-3-(2-oxabicyclo[2.2.2]octan-4-ylmethoxy)-1-(dimethylamino)-1-oxobutan-2-yl)-2-((S)-2,2-dimethylcyclopropanecarbonyl)-6-(thiazolo[5,4-c]pyridin-4-yl)-2,6-diazaspiro[3.4]octane-8-carboxamide] | > 20 µM |
| ≤ 0.01 µM | C[C@@H](OCC12CCC(CC1)OC2)[C@H](NC(=O)[C@@H]1CN(c2cc(F)cc3ncsc23)CC12CN(C(=O)[C@H]1CC1(C)C)C2)C(=O)N1CCC(c2ccncc2)CC1 [Compound I-33, N-((2S,3R)-3-(2-oxabicyclo[2.2.2]octan-4-ylmethoxy)-1-oxo-1-(4-(pyridin-4-yl)piperidin-1-yl)butan-2-yl)-2-((S)-2,2-dimethylcyclopropanecarbonyl)-6-(5-fluorobenzo[d]thiazol-7-yl)-2,6-diazaspiro[3.4]octane-8-carboxamide] | 0.5 to 5 µM |
| > 10 µM | C[C@@H](OCC12CCC(CC1)OC2)[C@H](NC(=O)[C@@H]1CN(C(=O)c2cncs2)CC12CN(c1cc[nH]n1)C2)C(C)(C)O [Compound I-31, (S)-N-((3S,4R)-4-(2-oxabicyclo[2.2.2]octan-4-ylmethoxy)-2-hydroxy-2-methylpentan-3-yl)-2-(1H-pyrazol-3-yl)-6-(thiazole-5-carbonyl)-2,6-diazaspiro[3.4]octane-8-carboxamide] |  |
| 0.01 to 0.1 µM | C[C@@H](OCC1(CO)CC=CCC1)C(NC(=O)[C@@H]1CN(c2ncnc3ncsc23)CC12CN(C(=O)[C@H]1CC1(C)C)C2)C(=O)N1CCC(OC(F)(F)F)CC1 (stereo partly drawn) [Compound I-35, (8S)-2-((S)-2,2-dimethylcyclopropane-1-carbonyl)-N-((2S,3R)-3-((1-(hydroxymethyl)cyclohex-3-en-1-yl)methoxy)-1-oxo-1-(4-(trifluoromethoxy)piperidin-1-yl)butan-2-yl)-6-(thiazolo[4,5-d]pyrimidin-7-yl)-2,6-diazaspiro[3.4]octane-8-carboxamide] | > 20 µM |
| 1 to 10 µM | C[C@@H](OCC12CCC(CC1)OC2)[C@H](NC(=O)[C@@H]1CN(c2cccc3ncsc23)CC12CN(C(=O)[C@H]1CC1(C)C)C2)C(=O)N(C)C [Compound I-22, (S)-N-((2S,3R)-3-(2-oxabicyclo[2.2.2]octan-4-ylmethoxy)-1-(dimethylamino)-1-oxobutan-2-yl)-6-(benzo[d]thiazol-7-yl)-2-((S)-2,2-dimethylcyclopropanecarbonyl)-2,6-diazaspiro[3.4]octane-8-carboxamide] | > 20 µM |
| 1 to 10 µM | C[C@@H](OCC12CCC(CC1)OC2)[C@H](NC(=O)[C@@H]1CN(c2nccc3ncsc23)CC12CN(C(=O)[C@H]1CC1(C)C)C2)C(=O)N1CCC2(CC1)COC2 [Compound I-19, (S)-N-((2S,3R)-3-(2-oxabicyclo[2.2.2]octan-4-ylmethoxy)-1-oxo-1-(2-oxa-7-azaspiro[3.5]nonan-7-yl)butan-2-yl)-2-((S)-2,2-dimethylcyclopropanecarbonyl)-6-(thiazolo[5,4-c]pyridin-4-yl)-2,6-diazaspiro[3.4]octane-8-carboxamide] | > 20 µM |
| 0.1 to 1 µM | COC[C@H]1CCCN(C(=O)[C@@H](NC(=O)[C@@H]2CN(c3cc(O)cc4ncsc34)CC23CN(C(=O)[C@H]2CC2(C)C)C3)[C@@H](C)OCC23CCC(CC2)OC3)C1 [Compound I-20, (S)-N-((2S,3R)-3-(2-oxabicyclo[2.2.2]octan-4-ylmethoxy)-1-((S)-3-(methoxymethyl)piperidin-1-yl)-1-oxobutan-2-yl)-2-((S)-2,2-dimethylcyclopropanecarbonyl)-6-(5-hydroxybenzo[d]thiazol-7-yl)-2,6-diazaspiro[3.4]octane-8-carboxamide] | 5 to 20 µM |
